Legend:
Test in all cases: KinaseProfiler Assay
PKCα = PKCα (Homo sapiens, UniProt P17252); format: biochemical; details: read-out: PKCα, % of Control
Hck = Hck (Homo sapiens, UniProt P08631); format: biochemical; details: read-out: Hck, % of Control
ALK4 = ALK4 (Homo sapiens, UniProt P36896); format: biochemical; details: read-out: ALK4, % of Control
EphA8 = target: T1, EphA8 (Homo sapiens, UniProt P29322); format: biochemical; details: read-out: EphA8, % of Control
T1 sequence (P29322 28-1005): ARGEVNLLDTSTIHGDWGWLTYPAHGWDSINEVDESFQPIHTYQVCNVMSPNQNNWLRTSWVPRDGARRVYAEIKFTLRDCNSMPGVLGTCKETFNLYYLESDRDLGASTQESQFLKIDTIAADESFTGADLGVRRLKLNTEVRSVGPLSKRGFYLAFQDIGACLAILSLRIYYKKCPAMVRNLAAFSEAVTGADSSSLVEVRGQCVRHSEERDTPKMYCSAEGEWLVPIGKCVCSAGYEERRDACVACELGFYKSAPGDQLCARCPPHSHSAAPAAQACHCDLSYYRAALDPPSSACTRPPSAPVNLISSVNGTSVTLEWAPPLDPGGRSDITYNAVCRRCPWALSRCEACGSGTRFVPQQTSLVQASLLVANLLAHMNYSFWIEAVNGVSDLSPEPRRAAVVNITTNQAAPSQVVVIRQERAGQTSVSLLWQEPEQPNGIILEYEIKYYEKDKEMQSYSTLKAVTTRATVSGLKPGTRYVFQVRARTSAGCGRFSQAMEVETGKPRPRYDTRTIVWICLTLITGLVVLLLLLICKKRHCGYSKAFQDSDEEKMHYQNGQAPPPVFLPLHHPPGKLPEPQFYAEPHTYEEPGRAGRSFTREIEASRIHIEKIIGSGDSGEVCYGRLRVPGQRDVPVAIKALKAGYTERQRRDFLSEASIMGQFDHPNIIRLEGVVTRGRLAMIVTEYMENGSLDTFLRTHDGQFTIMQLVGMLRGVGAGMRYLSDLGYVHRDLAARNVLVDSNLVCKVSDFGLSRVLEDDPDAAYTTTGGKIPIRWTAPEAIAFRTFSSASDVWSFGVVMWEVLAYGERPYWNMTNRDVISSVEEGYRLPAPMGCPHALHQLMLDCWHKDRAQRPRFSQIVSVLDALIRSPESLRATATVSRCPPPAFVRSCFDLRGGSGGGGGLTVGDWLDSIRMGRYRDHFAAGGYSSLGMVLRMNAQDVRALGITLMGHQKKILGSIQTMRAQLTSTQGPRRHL

CK1δ = CK1δ (Homo sapiens, UniProt P48730); format: biochemical; details: read-out: CK1δ, % of Control
Chain of CK1δ (P48730 whole entry): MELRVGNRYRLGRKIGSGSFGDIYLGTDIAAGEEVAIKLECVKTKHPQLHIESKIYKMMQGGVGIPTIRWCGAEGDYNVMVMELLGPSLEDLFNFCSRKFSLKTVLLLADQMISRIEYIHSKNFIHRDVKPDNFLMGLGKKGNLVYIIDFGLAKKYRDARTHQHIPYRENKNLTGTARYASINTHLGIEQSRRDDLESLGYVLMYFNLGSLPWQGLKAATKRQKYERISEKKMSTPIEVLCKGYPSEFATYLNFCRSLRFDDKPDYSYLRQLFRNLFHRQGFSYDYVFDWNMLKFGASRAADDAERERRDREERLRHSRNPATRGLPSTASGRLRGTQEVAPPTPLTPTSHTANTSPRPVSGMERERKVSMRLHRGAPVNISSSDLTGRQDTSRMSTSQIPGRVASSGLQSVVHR

IKKβ = target: T2, IKKβ (Homo sapiens, UniProt O14920); format: biochemical; details: read-out: IKKβ, % of Control
T2 sequence (O14920 1-756): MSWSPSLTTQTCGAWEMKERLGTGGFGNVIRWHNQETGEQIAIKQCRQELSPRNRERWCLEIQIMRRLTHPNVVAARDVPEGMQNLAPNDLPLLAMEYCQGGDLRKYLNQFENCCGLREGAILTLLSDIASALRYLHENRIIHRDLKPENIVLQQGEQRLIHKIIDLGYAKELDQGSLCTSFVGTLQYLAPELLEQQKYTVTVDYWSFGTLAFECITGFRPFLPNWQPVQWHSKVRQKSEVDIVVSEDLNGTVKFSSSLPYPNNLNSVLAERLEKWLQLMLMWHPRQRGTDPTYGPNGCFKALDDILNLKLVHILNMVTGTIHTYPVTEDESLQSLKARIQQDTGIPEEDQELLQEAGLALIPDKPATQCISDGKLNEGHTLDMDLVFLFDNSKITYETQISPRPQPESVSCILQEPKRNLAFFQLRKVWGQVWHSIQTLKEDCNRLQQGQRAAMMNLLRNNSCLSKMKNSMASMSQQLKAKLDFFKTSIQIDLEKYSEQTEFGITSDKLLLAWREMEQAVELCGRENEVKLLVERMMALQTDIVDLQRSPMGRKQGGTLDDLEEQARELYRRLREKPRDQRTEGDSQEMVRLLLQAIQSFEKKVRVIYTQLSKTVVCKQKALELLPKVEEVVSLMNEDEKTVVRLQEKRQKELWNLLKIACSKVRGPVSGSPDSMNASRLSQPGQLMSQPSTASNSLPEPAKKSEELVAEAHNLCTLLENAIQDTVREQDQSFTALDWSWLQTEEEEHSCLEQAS

Flt4 = Flt4 (Homo sapiens, UniProt P35916); format: biochemical; details: read-out: Flt4, % of Control
Chain of Flt4 (P35916 25-1363): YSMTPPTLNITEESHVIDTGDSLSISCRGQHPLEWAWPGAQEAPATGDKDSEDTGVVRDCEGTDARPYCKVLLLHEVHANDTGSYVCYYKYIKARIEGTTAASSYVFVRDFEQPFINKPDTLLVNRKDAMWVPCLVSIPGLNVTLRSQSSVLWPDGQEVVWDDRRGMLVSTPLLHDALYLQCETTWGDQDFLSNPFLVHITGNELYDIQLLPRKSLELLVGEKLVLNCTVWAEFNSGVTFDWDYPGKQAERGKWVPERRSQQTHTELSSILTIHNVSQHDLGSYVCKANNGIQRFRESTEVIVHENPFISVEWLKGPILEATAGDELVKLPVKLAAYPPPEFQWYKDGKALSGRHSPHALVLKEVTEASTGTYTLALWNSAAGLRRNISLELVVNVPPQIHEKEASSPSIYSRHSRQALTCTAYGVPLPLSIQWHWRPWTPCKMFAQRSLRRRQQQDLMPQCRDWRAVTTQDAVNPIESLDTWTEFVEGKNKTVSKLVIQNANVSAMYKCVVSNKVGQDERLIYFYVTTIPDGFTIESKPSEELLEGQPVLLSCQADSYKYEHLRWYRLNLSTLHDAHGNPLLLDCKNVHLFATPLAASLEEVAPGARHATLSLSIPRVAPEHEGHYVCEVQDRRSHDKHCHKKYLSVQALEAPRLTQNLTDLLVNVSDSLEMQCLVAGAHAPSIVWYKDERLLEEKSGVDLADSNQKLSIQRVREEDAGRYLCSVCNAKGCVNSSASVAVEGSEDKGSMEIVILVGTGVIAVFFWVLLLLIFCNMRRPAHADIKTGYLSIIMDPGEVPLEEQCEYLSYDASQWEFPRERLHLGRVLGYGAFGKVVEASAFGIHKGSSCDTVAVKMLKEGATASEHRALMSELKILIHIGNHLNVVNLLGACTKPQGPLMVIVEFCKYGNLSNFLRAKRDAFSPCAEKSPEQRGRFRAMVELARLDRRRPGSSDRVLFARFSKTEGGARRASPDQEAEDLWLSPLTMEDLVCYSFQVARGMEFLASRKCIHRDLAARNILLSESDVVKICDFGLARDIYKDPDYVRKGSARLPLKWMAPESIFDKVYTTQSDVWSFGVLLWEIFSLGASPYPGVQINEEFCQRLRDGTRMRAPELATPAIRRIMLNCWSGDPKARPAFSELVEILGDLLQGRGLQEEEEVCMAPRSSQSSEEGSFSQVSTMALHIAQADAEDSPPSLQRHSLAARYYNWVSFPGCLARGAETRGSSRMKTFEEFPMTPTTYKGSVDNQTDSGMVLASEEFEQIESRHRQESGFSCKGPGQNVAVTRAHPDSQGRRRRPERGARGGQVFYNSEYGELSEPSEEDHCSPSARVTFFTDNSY

PKA(b) = PKA(b) (Bos taurus, UniProt P00517); format: biochemical, human; details: read-out: PKA(b), % of Control
CK1γ3 = CK1γ3 (Homo sapiens, UniProt Q9Y6M4); format: biochemical; details: read-out: CK1γ3, % of Control
Chain of CK1γ3 (Q9Y6M4 whole entry): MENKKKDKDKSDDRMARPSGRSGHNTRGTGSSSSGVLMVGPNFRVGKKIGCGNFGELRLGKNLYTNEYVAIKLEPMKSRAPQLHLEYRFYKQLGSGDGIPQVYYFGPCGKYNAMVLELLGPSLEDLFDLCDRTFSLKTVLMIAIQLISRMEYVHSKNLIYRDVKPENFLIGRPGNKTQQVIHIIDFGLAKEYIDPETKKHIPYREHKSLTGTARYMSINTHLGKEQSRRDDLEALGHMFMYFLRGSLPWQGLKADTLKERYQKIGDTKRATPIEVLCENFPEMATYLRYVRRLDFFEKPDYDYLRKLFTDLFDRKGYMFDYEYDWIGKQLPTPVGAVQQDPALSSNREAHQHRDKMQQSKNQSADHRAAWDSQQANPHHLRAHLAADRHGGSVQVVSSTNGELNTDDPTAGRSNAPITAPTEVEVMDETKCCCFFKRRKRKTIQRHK

Chain of ALK4 (P36896 24-505): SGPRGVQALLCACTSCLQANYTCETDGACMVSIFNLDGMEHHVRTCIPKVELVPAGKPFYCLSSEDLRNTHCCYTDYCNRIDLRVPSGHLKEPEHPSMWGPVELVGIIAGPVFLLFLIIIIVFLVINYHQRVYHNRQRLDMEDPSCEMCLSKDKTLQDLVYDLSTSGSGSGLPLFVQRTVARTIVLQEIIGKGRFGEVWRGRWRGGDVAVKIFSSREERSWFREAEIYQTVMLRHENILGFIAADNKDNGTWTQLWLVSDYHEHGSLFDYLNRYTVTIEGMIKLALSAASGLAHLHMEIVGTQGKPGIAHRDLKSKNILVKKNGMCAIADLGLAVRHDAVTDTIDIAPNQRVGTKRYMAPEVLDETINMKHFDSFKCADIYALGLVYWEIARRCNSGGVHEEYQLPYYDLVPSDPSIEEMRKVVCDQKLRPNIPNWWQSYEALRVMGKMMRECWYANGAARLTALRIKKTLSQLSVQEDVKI
Chain of Hck (P08631 whole entry): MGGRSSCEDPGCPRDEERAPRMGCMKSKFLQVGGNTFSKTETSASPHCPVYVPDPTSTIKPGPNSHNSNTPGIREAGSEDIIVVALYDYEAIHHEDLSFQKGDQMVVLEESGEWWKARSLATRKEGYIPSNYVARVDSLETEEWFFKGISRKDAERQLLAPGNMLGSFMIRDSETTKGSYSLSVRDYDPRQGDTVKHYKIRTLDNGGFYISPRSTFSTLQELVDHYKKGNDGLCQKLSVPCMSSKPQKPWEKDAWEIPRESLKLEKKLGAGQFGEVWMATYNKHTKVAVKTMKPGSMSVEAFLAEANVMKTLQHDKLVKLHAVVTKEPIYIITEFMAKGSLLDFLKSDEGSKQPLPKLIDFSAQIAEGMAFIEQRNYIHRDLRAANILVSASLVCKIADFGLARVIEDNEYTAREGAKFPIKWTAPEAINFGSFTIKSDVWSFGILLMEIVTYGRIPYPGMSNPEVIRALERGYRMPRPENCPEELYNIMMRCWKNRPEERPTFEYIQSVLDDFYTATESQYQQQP

**Q.** Which results are given for `COc1cc(O)c(CC=C(C)C)c(O)c1C(=O)/C=C/c1ccc(O)cc1` [Xanthohumol, xanthohumol]?
**A.** remaining activity at 1 µg/mL (PKCα; 1 ug/ml): 100%; remaining activity at 5 µg/mL (PKCα; 5 ug/ml): 100%; remaining activity at 25 µg/mL (PKCα; 25 ug/ml): 75%; remaining activity at 50 µg/mL (PKCα; 50 ug/ml): 83%; remaining activity at 1 µg/mL (Hck; 1 ug/ml): 85%; remaining activity at 25 µg/mL (Hck; 25 ug/ml): 17%; remaining activity at 1 µg/mL (ALK4; 1 ug/ml): 116%; remaining activity at 25 µg/mL (ALK4; 25 ug/ml): 71%; remaining activity at 1 µg/mL (EphA8; 1 ug/ml): 103%; remaining activity at 5 µg/mL (EphA8; 5 ug/ml): 92%; remaining activity at 25 µg/mL (EphA8; 25 ug/ml): 29%; remaining activity at 50 µg/mL (EphA8; 50 ug/ml): 19%; remaining activity at 5 µg/mL (CK1δ; 5 ug/ml): 32%; remaining activity at 25 µg/mL (CK1δ; 25 ug/ml): 16%; remaining activity at 50 µg/mL (CK1δ; 50 ug/ml): 12%; remaining activity at 1 µg/mL (IKKβ; 1 ug/ml): 145%; remaining activity at 5 µg/mL (IKKβ; 5 ug/ml): 118%; remaining activity at 25 µg/mL (IKKβ; 25 ug/ml): 61%; remaining activity at 50 µg/mL (IKKβ; 50 ug/ml): 44%; remaining activity at 1 µg/mL (Flt4; 1 ug/ml): 74%; remaining activity at 5 µg/mL (Flt4; 5 ug/ml): 10%; remaining activity at 25 µg/mL (Flt4; 25 ug/ml): 11%; remaining activity at 1 µg/mL (PKA(b); 1 ug/ml): 137%; remaining activity at 25 µg/mL (PKA(b); 25 ug/ml): 33%; remaining activity at 1 µg/mL (CK1γ3; 1 ug/ml): 98%; remaining activity at 5 µg/mL (CK1γ3; 5 ug/ml): 51%; remaining activity at 25 µg/mL (CK1γ3; 25 ug/ml): 22%; remaining activity at 50 µg/mL (CK1γ3; 50 ug/ml): 15%

Reference: US20080051466A1, “Isoalpha acid based protein kinase modulation cancer treatment” (Metaproteomics, LLC, priority 2006, published 2008)
